# “And” between values parts separate entries of the source, which are not always exact repeats. Identical values can stand only once. Like-named read-outs stand apart in the source and are kept apart here.
# Experiments:
# [1] = target: T1, recombinant human M4 muscarinic acetylcholine receptor (Homo sapiens, UniProt P08173); assay: Muscarinic receptor binding assay, M4; conditions: 3H-N-Methylscopolamine 0.8 nM, CHO membranes
# T1 construct: expressed in transfected cells; host or cells: CHO cells (membranes)
# T1 sequence (P08173 1-479): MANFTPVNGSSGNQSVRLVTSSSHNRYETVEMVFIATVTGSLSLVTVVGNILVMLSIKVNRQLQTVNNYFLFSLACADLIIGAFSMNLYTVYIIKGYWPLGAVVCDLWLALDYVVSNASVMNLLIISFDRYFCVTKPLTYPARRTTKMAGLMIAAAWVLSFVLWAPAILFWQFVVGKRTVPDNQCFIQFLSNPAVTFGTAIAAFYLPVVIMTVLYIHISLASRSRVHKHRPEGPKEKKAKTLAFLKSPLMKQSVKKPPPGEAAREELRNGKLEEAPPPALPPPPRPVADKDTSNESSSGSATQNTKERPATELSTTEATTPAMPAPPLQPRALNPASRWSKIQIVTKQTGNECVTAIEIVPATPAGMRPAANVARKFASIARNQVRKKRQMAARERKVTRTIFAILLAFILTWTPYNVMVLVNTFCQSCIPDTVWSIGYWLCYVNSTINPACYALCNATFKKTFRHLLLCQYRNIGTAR
# Experimental: (§1) Competition binding experiments were conducted by incubating membranes with a fixed concentration of radioligand in the presence of variable concentrations of test compounds. ^3H—N-Methylscopolamine at 0.8 nM was used as the radioligand for all receptor subtypes. Incubations were carried out for 2 hours at 25° C. in buffer containing 50 mM Tris HCl, 10 mM MgCl2 and 1 mM EDTA. Following incubations, the membranes were washed the bound radioactivity was measured. […] Ki was obtained using the Cheng Prusoff correction using Kd values that were experimental determined previously under these assay conditions.
# [2] = target: T2, recombinant human M5 muscarinic acetylcholine receptor (Homo sapiens, UniProt P08912); assay: Muscarinic receptor binding assay, M5; conditions: 3H-N-Methylscopolamine 0.8 nM, CHO membranes
# T2 construct: expressed in transfected cells; host or cells: CHO cells (membranes)
# T2 sequence (P08912 1-532): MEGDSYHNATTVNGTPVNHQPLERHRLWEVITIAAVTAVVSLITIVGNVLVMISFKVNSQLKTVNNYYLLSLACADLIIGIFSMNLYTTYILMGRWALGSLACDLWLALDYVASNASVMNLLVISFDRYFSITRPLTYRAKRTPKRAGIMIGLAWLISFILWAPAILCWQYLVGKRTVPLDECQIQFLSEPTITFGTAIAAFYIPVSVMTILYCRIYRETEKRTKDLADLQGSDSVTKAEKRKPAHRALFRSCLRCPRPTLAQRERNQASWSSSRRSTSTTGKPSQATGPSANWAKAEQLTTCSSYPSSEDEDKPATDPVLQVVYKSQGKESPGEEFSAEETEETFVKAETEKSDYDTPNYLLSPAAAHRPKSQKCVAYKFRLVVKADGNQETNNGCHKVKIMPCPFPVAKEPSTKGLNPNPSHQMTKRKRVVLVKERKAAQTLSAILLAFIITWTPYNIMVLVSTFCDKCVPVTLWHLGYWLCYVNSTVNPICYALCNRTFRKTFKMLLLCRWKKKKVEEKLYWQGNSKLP
# Experimental: as §1
# [3] = target: sodium channels (cardiac INa) in isolated human atrial myocytes (Homo sapiens, UniProt Q14524); assay: Sodium channel assay, whole-cell patch clamp, cardiac INa; type: cell-based; conditions: for IC50: approximate, >50% inhibition not obtained at highest concentration
# [4] = system: sodium channels (neuronal INa) in isolated rat dorsal root ganglion cells; assay: Sodium channel assay, whole-cell patch clamp, neuronal INa; type: cell-based; conditions: for IC50: approximate, >50% inhibition not obtained at highest concentration
# [5] = target: T3, recombinant human H1 histamine receptor (Homo sapiens, UniProt P35367); assay: Histamine receptor radioligand binding assay, H1; conditions: for H1:H2 Selectivity: H2 Ki versus H1 Ki; for H1 Receptor Fold-change over parent: Ki relative to amitriptyline; for Ki: [3H]-Pyrilamine 1.2 nM, CHO membranes
# T3 construct: expressed in transfected cells; host or cells: CHO cells (membranes)
# Experimental: (§2) Competition binding experiments were conducted by incubating membranes with a fixed concentration of radioligand in the presence of variable concentrations of test compounds. The radioligands used were specific for each receptor subtype and the assay conditions are described in Table 2. Following incubations, the membranes were washed and the bound radioactivity was measured. Non-specific binding was measured in the presence of excess unlabelled ligand; this value was subtracted from the total binding yielding the specific binding at each test compound concentration.
# (§3) Ki was obtained using the Cheng Prusoff correction using experimental Kd values that were previously determined under the same assay conditions.
# [6] = target: T4, recombinant human H2 histamine receptor (Homo sapiens, UniProt P25021); assay: Histamine receptor radioligand binding assay, H2; conditions: for H2 Receptor Fold-change over parent: Ki relative to amitriptyline; for Ki: [125I]-Aminopotentidine 0.1 nM, CHO membranes
# T4 construct: expressed in transfected cells; host or cells: CHO cells (membranes)
# Experimental: as §2, §3
# [7] = pKa and LogP determinations; type: physicochemical
# [8] = target: T5, noradrenalin transporters (rat forebrain membranes) (Rattus norvegicus, UniProt Q9WTR4); assay: Noradrenalin transporter binding assay; conditions: for Ki: [3H]-nisoxetine 1.0 nM, rat forebrain membranes, read-out: Ki, binding affinity to noradrenalin transporters
# T5 construct: membranes prepared from rat forebrain which express noradrenalin transporters; from tissue; host or cells: rat forebrain membranes
# Experimental: Competition binding experiments were conducted by incubating membranes with 1.0 nM of radioligand, [^3H]-nisoxetine, in the presence of variable concentrations (0.1 nM to 3 μM and 3 nM to 100 μM for parent and PEG conjugates, respectively) of test compounds. The reaction was carried out in 50 mM Tris-HCl (pH 7.4), 300 mM NaCl, 5 mM KCl at 0-4° C. for 4 hours. Following incubations, the membranes were washed, and the bound radioactivity was measured.
# Ki was obtained using the Cheng Prusoff correction using experimental Kd values that were previously determined under these assay conditions.
# [9] = target: T6, recombinant human M1 muscarinic acetylcholine receptor (Homo sapiens, UniProt P11229); assay: Muscarinic receptor binding assay, M1; conditions: 3H-N-Methylscopolamine 0.8 nM, CHO membranes
# T6 construct: expressed in transfected cells; host or cells: CHO cells (membranes)
# T6 sequence (P11229 1-460): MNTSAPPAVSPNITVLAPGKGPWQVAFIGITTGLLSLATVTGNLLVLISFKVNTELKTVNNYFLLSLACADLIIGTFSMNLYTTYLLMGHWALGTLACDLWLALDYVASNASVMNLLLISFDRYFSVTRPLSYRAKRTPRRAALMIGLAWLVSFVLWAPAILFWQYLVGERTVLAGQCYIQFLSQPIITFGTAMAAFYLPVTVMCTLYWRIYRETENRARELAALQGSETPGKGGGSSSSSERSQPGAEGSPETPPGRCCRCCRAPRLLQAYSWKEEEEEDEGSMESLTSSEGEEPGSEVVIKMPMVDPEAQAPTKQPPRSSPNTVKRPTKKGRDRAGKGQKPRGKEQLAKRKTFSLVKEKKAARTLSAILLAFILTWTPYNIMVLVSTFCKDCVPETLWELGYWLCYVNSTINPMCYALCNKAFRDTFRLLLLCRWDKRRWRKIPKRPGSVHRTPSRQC
# Experimental: as §1
# [10] = target: T7, recombinant human M2 muscarinic acetylcholine receptor (Homo sapiens, UniProt P08172); assay: Muscarinic receptor binding assay, M2; conditions: 3H-N-Methylscopolamine 0.8 nM, CHO membranes
# T7 construct: expressed in transfected cells; host or cells: CHO cells (membranes)
# T7 sequence (P08172 1-466): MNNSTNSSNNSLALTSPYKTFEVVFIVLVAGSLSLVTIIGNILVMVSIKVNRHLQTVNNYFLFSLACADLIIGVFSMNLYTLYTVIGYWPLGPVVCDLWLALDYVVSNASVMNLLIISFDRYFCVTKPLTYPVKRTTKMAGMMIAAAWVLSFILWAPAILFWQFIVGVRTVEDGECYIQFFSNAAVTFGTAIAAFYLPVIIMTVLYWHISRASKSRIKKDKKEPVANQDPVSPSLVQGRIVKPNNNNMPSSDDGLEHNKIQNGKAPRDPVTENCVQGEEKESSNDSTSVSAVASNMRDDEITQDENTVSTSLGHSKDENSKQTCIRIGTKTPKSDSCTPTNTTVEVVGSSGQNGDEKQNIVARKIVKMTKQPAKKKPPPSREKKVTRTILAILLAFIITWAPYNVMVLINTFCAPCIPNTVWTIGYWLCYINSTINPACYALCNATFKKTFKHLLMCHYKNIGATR
# Experimental: as §1
# [11] = pacing 0.1 Hz, read-out: Cardiac INa IC50 at 0.1 Hz
# [12] = pacing 3 Hz, read-out: Cardiac INa IC50 at 3 Hz
# [13] = pacing 0.1 Hz, read-out: Neuronal INa IC50 at 0.1 Hz
# [14] = pacing 3 Hz, read-out: Neuronal INa IC50 at 3 Hz
# T4 sequence (P25021 whole entry): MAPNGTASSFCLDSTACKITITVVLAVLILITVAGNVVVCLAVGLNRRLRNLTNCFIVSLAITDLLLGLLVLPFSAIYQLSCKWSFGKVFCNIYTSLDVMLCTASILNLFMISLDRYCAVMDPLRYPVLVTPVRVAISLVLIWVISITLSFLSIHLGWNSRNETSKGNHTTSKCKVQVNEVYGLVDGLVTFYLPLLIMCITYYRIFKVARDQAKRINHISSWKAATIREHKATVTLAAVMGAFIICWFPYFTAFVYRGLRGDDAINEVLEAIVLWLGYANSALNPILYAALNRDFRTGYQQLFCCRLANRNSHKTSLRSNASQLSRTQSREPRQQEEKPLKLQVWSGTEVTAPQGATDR
# T3 sequence (P35367 whole entry): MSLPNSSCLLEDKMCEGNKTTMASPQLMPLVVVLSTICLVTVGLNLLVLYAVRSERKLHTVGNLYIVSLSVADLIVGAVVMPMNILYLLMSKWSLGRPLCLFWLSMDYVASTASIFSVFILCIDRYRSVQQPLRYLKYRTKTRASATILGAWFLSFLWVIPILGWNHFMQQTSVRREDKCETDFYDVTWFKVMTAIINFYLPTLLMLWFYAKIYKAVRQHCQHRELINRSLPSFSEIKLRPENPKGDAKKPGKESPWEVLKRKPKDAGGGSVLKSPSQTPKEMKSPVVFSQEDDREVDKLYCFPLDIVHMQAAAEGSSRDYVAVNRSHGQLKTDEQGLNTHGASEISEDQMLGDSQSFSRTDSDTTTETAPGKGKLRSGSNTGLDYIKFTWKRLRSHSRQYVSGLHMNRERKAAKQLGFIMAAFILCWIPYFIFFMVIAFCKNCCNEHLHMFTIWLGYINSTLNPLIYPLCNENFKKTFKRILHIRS
# sodium channels (cardiac INa) in isolated human atrial myocytes, sequence (Q14524 whole entry): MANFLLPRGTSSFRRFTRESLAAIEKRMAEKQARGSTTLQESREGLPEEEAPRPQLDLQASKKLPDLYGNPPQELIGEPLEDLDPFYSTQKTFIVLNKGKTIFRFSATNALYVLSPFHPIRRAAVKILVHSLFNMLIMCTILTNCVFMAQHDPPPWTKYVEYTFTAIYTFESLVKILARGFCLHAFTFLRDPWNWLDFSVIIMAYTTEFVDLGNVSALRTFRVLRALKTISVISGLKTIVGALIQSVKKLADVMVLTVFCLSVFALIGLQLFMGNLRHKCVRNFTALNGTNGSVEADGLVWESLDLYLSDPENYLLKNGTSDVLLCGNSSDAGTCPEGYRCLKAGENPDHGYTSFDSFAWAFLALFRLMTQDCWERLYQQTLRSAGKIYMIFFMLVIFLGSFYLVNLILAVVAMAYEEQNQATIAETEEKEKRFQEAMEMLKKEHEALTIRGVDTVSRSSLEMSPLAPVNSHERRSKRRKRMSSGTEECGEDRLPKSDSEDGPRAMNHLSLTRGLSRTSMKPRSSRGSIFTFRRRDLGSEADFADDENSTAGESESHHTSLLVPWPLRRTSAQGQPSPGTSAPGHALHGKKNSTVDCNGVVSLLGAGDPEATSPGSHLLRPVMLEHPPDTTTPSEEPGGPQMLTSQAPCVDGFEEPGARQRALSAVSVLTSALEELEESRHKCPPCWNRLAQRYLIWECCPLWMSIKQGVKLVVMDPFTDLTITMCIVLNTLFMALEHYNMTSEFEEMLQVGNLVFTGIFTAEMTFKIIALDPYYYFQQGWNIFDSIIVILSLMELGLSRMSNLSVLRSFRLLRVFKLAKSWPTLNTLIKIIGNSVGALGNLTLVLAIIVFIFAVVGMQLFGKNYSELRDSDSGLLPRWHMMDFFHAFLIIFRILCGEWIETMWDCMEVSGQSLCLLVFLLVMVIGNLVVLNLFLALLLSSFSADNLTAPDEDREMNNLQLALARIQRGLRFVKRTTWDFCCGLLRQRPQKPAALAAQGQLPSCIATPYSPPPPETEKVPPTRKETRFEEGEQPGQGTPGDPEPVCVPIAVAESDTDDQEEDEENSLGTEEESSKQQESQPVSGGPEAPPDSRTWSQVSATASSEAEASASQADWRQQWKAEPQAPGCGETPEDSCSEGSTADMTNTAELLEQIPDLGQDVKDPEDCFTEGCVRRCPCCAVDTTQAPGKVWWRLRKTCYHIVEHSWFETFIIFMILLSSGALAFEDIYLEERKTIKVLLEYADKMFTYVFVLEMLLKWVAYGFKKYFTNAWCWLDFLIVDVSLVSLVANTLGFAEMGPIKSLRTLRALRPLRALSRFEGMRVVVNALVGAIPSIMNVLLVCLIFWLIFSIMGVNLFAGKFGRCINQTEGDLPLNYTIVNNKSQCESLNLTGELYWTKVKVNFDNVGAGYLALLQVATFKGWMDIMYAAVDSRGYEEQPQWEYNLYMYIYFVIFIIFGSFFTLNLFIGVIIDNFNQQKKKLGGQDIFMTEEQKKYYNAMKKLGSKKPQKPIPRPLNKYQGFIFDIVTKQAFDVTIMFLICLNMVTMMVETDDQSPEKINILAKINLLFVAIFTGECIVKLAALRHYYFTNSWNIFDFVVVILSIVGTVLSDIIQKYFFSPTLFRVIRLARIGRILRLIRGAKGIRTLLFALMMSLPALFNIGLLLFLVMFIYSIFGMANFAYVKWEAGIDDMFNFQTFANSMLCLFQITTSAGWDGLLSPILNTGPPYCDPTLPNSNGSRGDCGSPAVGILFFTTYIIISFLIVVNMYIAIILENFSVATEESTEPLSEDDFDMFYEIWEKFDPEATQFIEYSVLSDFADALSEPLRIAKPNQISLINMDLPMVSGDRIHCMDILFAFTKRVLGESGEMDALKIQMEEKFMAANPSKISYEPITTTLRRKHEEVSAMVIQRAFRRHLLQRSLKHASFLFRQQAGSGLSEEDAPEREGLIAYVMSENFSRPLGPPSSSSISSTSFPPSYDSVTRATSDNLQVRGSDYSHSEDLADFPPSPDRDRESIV
# T5 sequence (Q9WTR4 1-597): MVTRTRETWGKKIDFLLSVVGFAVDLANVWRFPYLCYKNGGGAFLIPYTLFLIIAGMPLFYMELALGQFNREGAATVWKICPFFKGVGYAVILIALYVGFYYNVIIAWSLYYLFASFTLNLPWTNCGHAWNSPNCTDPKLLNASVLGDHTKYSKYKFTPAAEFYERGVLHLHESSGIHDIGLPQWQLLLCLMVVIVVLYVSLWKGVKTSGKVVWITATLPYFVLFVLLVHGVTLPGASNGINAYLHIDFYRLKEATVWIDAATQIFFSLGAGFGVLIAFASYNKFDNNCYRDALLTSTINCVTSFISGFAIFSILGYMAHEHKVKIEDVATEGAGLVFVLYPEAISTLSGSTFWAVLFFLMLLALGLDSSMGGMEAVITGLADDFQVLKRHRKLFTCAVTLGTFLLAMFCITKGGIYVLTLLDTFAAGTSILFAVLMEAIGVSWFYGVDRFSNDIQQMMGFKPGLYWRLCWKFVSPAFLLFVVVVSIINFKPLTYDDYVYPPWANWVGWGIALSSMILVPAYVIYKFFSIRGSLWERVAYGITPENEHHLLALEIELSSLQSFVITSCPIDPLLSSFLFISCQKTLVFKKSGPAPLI
compound,measurement,setting,value
CN(C)CCC=C1c2ccccc2CCc2ccccc21 [Amitriptyline],Ki,[1],0.0239 µM
same,Ki,[2],0.017 µM
"NC(=O)N1c2ccccc2C=Cc2ccccc21 [Carbamazepine, reference compound]","Cardiac INa Fold Change Relative to Parent, 0.1 Hz","[3]; pacing 0.1 Hz, relative to carbamazepine",1.0
same,IC50,[3]; [11],160 µM
same,"Cardiac INa Fold Change Relative to Parent, 3 Hz","[3]; pacing 3 Hz, relative to carbamazepine",1.0
same,IC50,[3]; [12],145 µM
same,IC50,[4]; [13],102 µM
same,IC50,[4]; [14],114 µM
"NC1=N[C@H](O)[C@H]2[C@H]3O[C@]4(O)O[C@@H]([C@@H](O)[C@@]2(N1)[C@@H]4O)[C@]3(O)CO [TTX, tetrodotoxin, reference compound]",reduction of INa,[3],47.2% and 56.8%
same,reduction of INa,[4],93.2% and 96.8%
COCCOCCOCCN(C)CCC=C1c2ccccc2CCc2ccccc21 [mPEG3-N-Amitriptyline],H1:H2 Selectivity,[5],1663
same,H1 Receptor Fold-change over parent,[5],6
same,Ki,[5],0.00181 µM
same,H2 Receptor Fold-change over parent,[6],14
same,Ki,[6],3.01 µM
COCCOCCOCCNC(=O)N1c2ccccc2C=Cc2ccccc21 [mPEG3-N-Carbamazepine],"Cardiac INa Fold Change Relative to Parent, 0.1 Hz",[3],2.8
same,"Cardiac INa Fold Change Relative to Parent, 3 Hz",[3],1.5
same,IC50,[3]; [11],460 µM
same,IC50,[3]; [12],214 µM
same,IC50,[4]; [13],142 µM
same,IC50,[4]; [14],578 µM
COCCOCCOCCN(C)CCCN1c2ccccc2CCc2ccccc21 [mPEG3-N-Desipramine],pKa,[7],8.47
"COCCOCCOCCNCCCN1c2ccccc2CCc2ccccc21 [mPEG3-NH-Desipramine, N-mPEG3-3-(10,11-dihydro-dibenzo[b,f]azepin-5-yl)-propylamine]",logP,[7],3.14
same,pKa,[7],8.96
same,Fold Change Relative to Parent,[8],3336
same,Ki,[8],6.65 µM
COCCOCCOCCOCCOCCN(C)CCC=C1c2ccccc2CCc2ccccc21 [mPEG5-N-Amitriptyline],H1:H2 Selectivity,[5],3670
same,H1 Receptor Fold-change over parent,[5],11
same,Ki,[5],0.00357 µM
same,H2 Receptor Fold-change over parent,[6],63
same,Ki,[6],13.1 µM
COCCOCCOCCOCCOCCNC(=O)N1c2ccccc2C=Cc2ccccc21 [mPEG5-N-Carbamazepine],"Cardiac INa Fold Change Relative to Parent, 0.1 Hz",[3],0.4
same,"Cardiac INa Fold Change Relative to Parent, 3 Hz",[3],0.4
COCCOCCOCCOCCOCCN(C)CCCN1c2ccccc2CCc2ccccc21 [mPEG5-N-Desipramine],pKa,[7],8.55
COCCOCCOCCOCCOCCOCCN(C)CCC=C1c2ccccc2CCc2ccccc21 [mPEG6-N-Amitriptyline],H1 Receptor Fold-change over parent,[5],19
same,Ki,[5],0.00613 µM
same,Ki,[9],0.869 µM
same,Ki,[10],1.17 µM
COCCOCCOCCOCCOCCOCCOCCN(C)CCC=C1c2ccccc2CCc2ccccc21 [mPEG7-N-Amitriptyline],H1 Receptor Fold-change over parent,[5],23
same,Ki,[5],0.00744 µM
same,Ki,[10],1.14 µM
COCCOCCOCCOCCOCCOCCOCCNC(=O)N1c2ccccc2C=Cc2ccccc21 [mPEG7-N-Carbamazepine],"Cardiac INa Fold Change Relative to Parent, 0.1 Hz",[3],2.4
same,"Cardiac INa Fold Change Relative to Parent, 3 Hz",[3],1.2
same,IC50,[3]; [11],380 µM
same,IC50,[3]; [12],169 µM
same,IC50,[4]; [13],144 µM
same,IC50,[4]; [14],163 µM
"COCCOCCOCCOCCOCCOCCOCCNCCCN1c2ccccc2CCc2ccccc21 [mPEG7-NH-Desipramine, N-mPEG7-3-(10,11-dihydro-dibenzo[b,f]azepin-5-yl)-propylamine]",logP,[7],2.5
same,pKa,[7],8.94
same,Fold Change Relative to Parent,[8],2972
same,Ki,[8],5.92 µM
COCCOCCOCCOCCOCCOCCOCCOCCN(C)CCCN1c2ccccc2CCc2ccccc21 [mPEG8-N-Desipramine],pKa,[7],8.66

# Source: patent US8569380B2, “Oligomer-tricyclic conjugates” (Nektar Therapeutics, priority 2007, dated 2013)
